{"source": "patent EP2181589A1", "about": "“Neurotoxic sterol glycosides” (Shaw, Christopher Ariel, priority 2008, dated 2010)", "key": {"[1]": {"system": "Phosphorylated TDP-43 aggregates", "assay": "TDP-43 immunofluorescence", "type": "in vivo, CD-1 mice", "parameters": "key to Phosphorylated TDP-43 aggregates: - = not present; + = present", "settings": "for Phosphorylated TDP-43 aggregates: SG-fed", "protocol": "(§1) The synthetic SG was mixed with finely ground Purina Chow mouse pellets (Mouse Diet™, Purina) to create the experimental pellets with a SG content of 1000 µg per pellet. Dry materials were blended with a sterile silicon spatula. For every 5 g of standard feed, 2.5 mL of doubly-distilled water (dd)H2O was added and the dough was kneaded and round up into pellets. A single sterol glucoside containing pellet was placed in the feeding tray each morning before the addition of regular mouse chow (ad libitum). All experimental pellets were entirely consumed by the mice each day. Control mice were fed standard mouse chow pellets of identical weight with no additives. SG feeding was conducted daily for 15 weeks and mice were behaviorally monitored until sacrifice at 35 weeks (time point 1) or 52 weeks (time point 2).\n(§2) Tissue-mounted slides were processed for fluorescence microscopy as follows: Sections were rinsed in coplin jars for 45 minutes at room temperature (RT) in three changes of PBS. Sections were then incubated at RT for 30 minutes in a blocking permeabilization solution made of 5% normal goat serum (NGS), 5% normal rabbit serum (NRS) or 5% BlokHen II (Aves Labs, Inc., Tigard, OR), 0.05% Triton X-100 and PBS. Subsequently, the blocking solution was tipped off and the slides were rinsed in PBS for 2 minutes. Sections were then incubated overnight in a humidified chamber at 4°C with a PBS buffered solution that contained 1% NGS or 1% NRS, 1% bovine serum albumin (BSA) and one of the following primary antibodies: (a) rabbit anti-human/mouse ATF-3 (H-90) IgG (polyclonal, 1:500; Santa Cruz Biotechnology, Inc., Santa Cruz, CA), (b) anti-activated caspase-3 IgG (monoclonal, 1:250; Chemicon International, Temecula, CA) (see FIGURE 9), (c) goat antihuman/ mouse choline acetyl transferase (ChAT) IgG (polyclonal, 1:100; Chemicon International, Temecula, CA) (see FIGURE 6), (d) rabbit anti-mouse glial fibrillary acidic protein IgG (polyclonal, 1:250; GeneTex Inc., San Antonio, TX) (see FIGURE 7), (e) rabbit antihuman/ mouse ionized calcium binding adaptor molecule 1 (IBA-1) IgG (polyclonal, 1:500; Wako Pure Chemical Industries, Ltd, Richmond, VA), (f) mouse anti-human/mouse clone AT8 PHF-1 Tau (monoclonal, 1:200; Pierce Biotechnology Inc., Rockford, IL), (g) rabbit anti-human/mouse TAR DNA-binding protein 43 (TDP43) (1:100; ProteinTech Group Inc., Chicago, IL) (See FIGURE 14), (h) chicken anti-human/mouse β-tubulin 3 (TuJ1 antigen) (polyclonal, 1:100, Aves Labs, Inc., Tigard, OR), (i) rabbit anti-mouse tyrosine hydroxylase (polyclonal, 1:500, Chemicon International, Temecula, CA or polyclonal 1:1000, Affinity BioReagents, Golden, CO) (FIGURE 10), (j) rabbit anti human/mouse anti-pJunser73 IgG (polyclonal, 1:200; Chemicon International, Temecula, CA), (k) rabbit anti human/mouse anti-HSP-70 IgG (polyclonal, 1:200; Chemicon International, Temecula, CA), or (1) rabbit anti human/mouse anti-HSP-25 IgG (polyclonal, 1:100; Chemicon International, Temecula, CA). In each experiment, additional slides were incubated with the primary antibody and the secondary antibody omitted or with secondary antibody and primary antibody omitted to test for nonspecific staining. Where appropriate, positive control slides (Alzheimer's disease patient entorhinal cortex, obtained from Drs. Claudia Schwab and Patrick McGeer of the Kinsmen Laboratory, University of British Columbia, Vancouver, BC, Canada) were also processed as above for comparison. […]"}, "[2]": {"system": "Ionized calcium-binding adaptor molecule-1", "assay": "IBA-1 immunofluorescence (microglia proliferation)", "type": "in vivo, CD-1 mice", "settings": "SG-fed group over time, 35 to 52 wk", "protocol": "as §1\n(§3) Tissue-mounted slides were processed for fluorescence microscopy as follows: Sections were rinsed in coplin jars for 45 minutes at room temperature (RT) in three changes of PBS. Sections were then incubated at RT for 30 minutes in a blocking permeabilization solution made of 5% normal goat serum (NGS), 5% normal rabbit serum (NRS) or 5% BlokHen II (Aves Labs, Inc., Tigard, OR), 0.05% Triton X-100 and PBS. Subsequently, the blocking solution was tipped off and the slides were rinsed in PBS for 2 minutes. […]"}, "[3]": {"assay": "Body weights of SG-fed animals", "type": "in vivo, CD-1 mice", "settings": "SG-fed vs control, over the study", "protocol": "(§4) Five-month old male CD-1 mice (30.1-35.7 g, 7.5 cm - 8.8 cm) were purchased from Charles River (Wilmington, MA). Adult mice were chosen to mimic the mean age of onset of ALS-PDC (Kurland, 1988; Kurland et al., 1994). Thirty mice for the SG study were randomly divided into 2 groups (14 control and 16 experimental animals). All animals were housed singly in a virus-free barrier facility in a room maintained at 22°C under a 12 hour light/dark cycle. The mice were provided ad libitum access to food and water.\nas §1"}, "[4]": {"system": "Cholinergic motor neurons in the spinal cord", "assay": "Choline acetyl transferase immunofluorescence", "type": "in vivo, CD-1 mice", "settings": "SG-fed vs control; for Cholinergic neurons: ventral horn of lumbar spinal cord", "protocol": "as §1, §3"}, "CD-1 mice": {"system": "CD-1 mice", "assay": "Rotarod test", "type": "in vivo", "settings": "SG-fed vs control, duration of the study", "protocol": "as §4\nThe synthetic SG was mixed with finely ground Purina Chow mouse pellets (Mouse Diet™, Purina) to create the experimental pellets with a SG content of 1000 µg per pellet. Dry materials were blended with a sterile silicon spatula. […] SG feeding was conducted daily for 15 weeks and mice were behaviorally monitored until sacrifice at 35 weeks (time point 1) or 52 weeks (time point 2).\nRotorod: The rotarod was used to evaluate motor function, coordination and balance (Jones and Roberts, 1968; Sango et al., 1995; Gerlai et al., 1996a; Sango et al., 1996; Chapillon et al., 1998; Carter et al., 1999; Crawley, 1999; Gerlai and Roder, 1996). The time that a mouse could remain walking on a horizontal (Norflus et al., 1998), rotating axle (3.6 cm diameter; 16 rpm) elevated above an area of padding without falling, clenching on, or jumping off the axle was measured (Crawley, 1999), see FIGURE 15. […]"}, "Heat shock protein-70": {"system": "Heat shock protein-70", "assay": "Heat shock protein-70 immunofluorescence", "type": "in vivo, CD-1 mice", "settings": "for Anti-Hsp-70 (VHLsc) / Anti-Hsp-70 (VHTsc): SG-fed vs control; for Anti-Hsp-70 (VHLsc): ventral horn lumbar spinal cord; for Anti-Hsp-70 (VHTsc): ventral horn thoracic spinal cord", "protocol": "as §1\nas §2, with “comparison. Following overnight incubation with the primary antibody, slides were rinsed for 45 minutes at RT in three changes of PBS.” for “comparison.”"}, "Phosphorylated Junser73": {"system": "Phosphorylated Junser73", "assay": "Phosphorylated Jun ser73 immunofluorescence", "type": "in vivo, CD-1 mice", "settings": "for Anti-pJun: SG-fed vs control", "protocol": "as §1, §3"}, "[5]": {"settings": "SG-fed group over time, 35 to 52 wk"}}, "note": "“And” between values parts separate entries of the source, which are not always exact repeats. Equal entries are not always repeated. “Also recorded” adds a separate entry of the source. Marks after values point to notes of the source that are not given here."}
{"smiles": "CCC(C=CC(C)C1CCC2C3CC=C4CC(OC5OC(CO)C(O)C(O)C5O)CCC4(C)C3CCC12C)C(C)C", "note": "(stereo not drawn) [SG]", "values": [{"measurement": "pathologic phosphorylated TDP-43-containing aggregates in the lumbar spinal cord", "setting": "[1]; SG-fed animals", "result": "increased"}, {"measurement": "translocation of TDP-43", "setting": "[1]; SG-fed animals at 35 weeks", "result": "No abnormal translocation"}, {"measurement": "Phosphorylated TDP-43 aggregates / TDP-43 pathology, animals affected", "setting": "[1]; SG-fed group, time-point 2, 52 wk", "result": "Two of eight and 2/8"}, {"measurement": "Phosphorylated TDP-43 aggregates", "setting": "[1]; time-point 1, 35 wk", "result": "-"}, {"measurement": "Phosphorylated TDP-43 aggregates", "setting": "[1]; time-point 2, 52 wk", "result": "+"}, {"measurement": "Anti-IBA-1 immunoreactive cells", "setting": "[2]", "result": "Anti-IBA-1 immunoreactive cells (SG-fed group over time) (ns)"}, {"measurement": "Body weights", "setting": "[3]", "result": "not significantly different; also recorded: normal weight gain"}, {"measurement": "fewer cholinergic neurons", "setting": "[4]; 35 weeks", "result": 18, "unit": "%"}, {"measurement": "fewer cholinergic neurons", "setting": "[4]; 52 weeks", "result": 32, "unit": "%"}, {"measurement": "Cholinergic neurons", "setting": "[4]; time-point 1, 35 wk", "result": "Cholinergic neurons (-18%)"}, {"measurement": "Cholinergic neurons", "setting": "[4]; time-point 2, 52 wk", "result": "Cholinergic neurons (-32%)"}, {"measurement": "Rotarod performance", "setting": "CD-1 mice", "result": "trend of diminished performance on the rotarod but numbers did not reach statistical significance; also recorded: decrease in the time without fall"}, {"measurement": "Anti-Hsp-70 Lsc", "setting": "Heat shock protein-70; [5]", "result": "Anti-Hsp-70 Lsc (SG-fed group over time) (ns, p=0.1223)"}, {"measurement": "Anti-Hsp-70 Tsc", "setting": "Heat shock protein-70; [5]", "result": "Anti-Hsp-70 Tsc (SG-fed group over time) (ns, p=0.8319)"}, {"measurement": "Anti-Hsp-70 (VHLsc)", "setting": "Heat shock protein-70; time-point 1, 35 wk", "result": "Anti-Hsp-70: +1036%***"}, {"measurement": "Anti-Hsp-70 (VHTsc)", "setting": "Heat shock protein-70; time-point 1, 35 wk", "result": "Anti-Hsp-70: (ns, p=0.9697)"}, {"measurement": "Anti-Hsp-70 (VHLsc)", "setting": "Heat shock protein-70; time-point 2, 52 wk", "result": "Anti-Hsp-70: +425%* (VHLsc)"}, {"measurement": "Anti-Hsp-70 (VHTsc)", "setting": "Heat shock protein-70; time-point 2, 52 wk", "result": "Anti-Hsp-70: (ns, p=0.2793)"}, {"measurement": "Anti-pJun immunoreactive cells", "setting": "Phosphorylated Junser73; [5]", "result": "Anti-pJun immunoreactive cells (SG-fed group over time) (ns)"}, {"measurement": "Anti-pJun", "setting": "Phosphorylated Junser73; time-point 1, 35 wk", "result": "Anti-pJun: +199%*"}, {"measurement": "Anti-pJun", "setting": "Phosphorylated Junser73; time-point 2, 52 wk", "result": "Anti-pJun (ns)"}]}
